Experimental data: patent publication US11827629B2, “CDGSH iron sulfur domain 2 activators and use thereof” (National Health Research Institutes, priority 2021, dated 2023)

Test system: Cisd2 promoter with firefly luciferase reporter
Assay: Cisd2-luciferase reporter assay in HEK293-CISD2 cells
Format: cell-based
Settings: Homo sapiens, 24 hours incubation, luciferase luminescence
Experimental: A typical in vitro screening method includes the following steps: (i) obtaining an initial level of Cisd2 in a batch of human embryonic kidney cells 293 (HEK-293 cells) that express Cisd2, (ii) treating the batch of HEK-293 cells with a compound of this invention, and (iii) analyzing the level of Cisd2 after the treatment, thereby determining the potency of the compound as a Cisd2 activator.
Compounds 1-109 were tested for increasing the level of Cisd2 in human embryonic kidney cells 293 (HEK293), a transfected cell line expressing Cisd2, using the Cisd2-luciferase reporter assay as follows.
The transfected HEK293 cells stably expressed Cisd2 promoter with firefly luciferase reporter (HEK293-CISD2). They were kept in Dulbecco's modified Eagle's medium (DMEM) (Gibco, New York, NY, USA). Culture medium was supplemented with 10% heat-inactivated fetal bovine serum (FBS), 2 mM L-Glutamine, 1 mM sodium pyruvate, 0.1% MEM Non-Essential Amino Acids, 1 ug/ml puromycin and 1% penicillin/streptomycin (HyClone, Logan, UT, USA). The cells were maintained at 37° C. in an incubator (Thermo Fisher Scientific, New York, NY, USA) with an atmosphere of 5% CO2. The stably transfected cells were seeded in 384-well plates at a density of 3×10^3 cells/well. After incubation with tested compounds at 37° C. for 24 hours, ONE-Glo™ Luciferase Assay System (Promega, Madison, WI, USA) was added at room temperature for 5 minutes to detect any luciferase activity. Luminescence intensity was registered using plate reader Victor^2V (PerkinElmer, Boston, MA, USA).
EC50 values in this table are presented in three classes, i.e., A: <1 μM, B: 1 μM-5 μM, and C: 5 μM-10 μM.

EC50 [nM] | Structure (SMILES)
< 1000 | O=C(CSc1nccs1)N1Cc2ccccc2C1 [Compound 1, 1-(1,3-dihydro-2H-isoindol-2-yl)-2-(1,3-thiazol-2-ylsulfanyl)ethanone]
< 1000 | COc1ccc2c(c1)CN(C(=O)CSc1nccs1)C2 [Compound 2, 1-(5-methoxy-1,3-dihydro-2H-isoindol-2-yl)-2-(1,3-thiazol-2-ylsulfanyl)ethanone]
1000 to 5000 | O=C(CSc1nccs1)N1Cc2ccc(O)cc2C1 [Compound 3, 1-(5-hydroxy-1,3-dihydro-2H-isoindol-2-yl)-2-(1,3-thiazol-2-ylsulfanyl)ethanone]
< 1000 | O=C(CSc1nccs1)N1Cc2cccc(F)c2C1 [Compound 4, 1-(4-fluoro-1,3-dihydro-2H-isoindol-2-yl)-2-(1,3-thiazol-2-ylsulfanyl)ethanone]
< 1000 | O=C(CSc1nccs1)N1Cc2ccc(F)cc2C1 [Compound 5, 1-(5-fluoro-1,3-dihydro-2H-isoindol-2-yl)-2-(1,3-thiazol-2-ylsulfanyl)ethanone]
1000 to 5000 | O=C(CSc1nccs1)N1Cc2cc(F)c(F)cc2C1 [Compound 6, 1-(5,6-difluoro-1,3-dihydro-2H-isoindol-2-yl)-2-(1,3-thiazol-2-ylsulfanyl)ethanone]
< 1000 | O=C(CSc1nccs1)N1Cc2ccc(Cl)cc2C1 [Compound 7, 1-(5-chloro-1,3-dihydro-2H-isoindol-2-yl)-2-(1,3-thiazol-2-ylsulfanyl)ethanone]
1000 to 5000 | O=C(CSc1nccs1)N1Cc2cc(Cl)c(Cl)cc2C1 [Compound 8, 1-(5,6-dichloro-1,3-dihydro-2H-isoindol-2-yl)-2-(1,3-thiazol-2-ylsulfanyl)ethanone]
< 1000 | COC(=O)c1ccc2c(c1)CN(C(=O)CSc1nccs1)C2 [Compound 9, methyl 2-[(1,3-thiazol-2-ylsulfanyl)acetyl]-2,3-dihydro-1H-isoindole-5-carboxylate]
1000 to 5000 | O=C(CSc1nccs1)N1Cc2ccc([N+](=O)[O-])cc2C1 [Compound 10, 1-(5-nitro-1,3-dihydro-2H-isoindol-2-yl)-2-(1,3-thiazol-2-ylsulfanyl)ethanone]
< 1000 | Cc1cnc(SCC(=O)N2Cc3ccccc3C2)s1 [Compound 11, 1-(1,3-dihydro-2H-isoindol-2-yl)-2-[(5-methyl-1,3-thiazol-2-yl)sulfanyl]ethanone]
< 1000 | Cc1cnc(SCC(=O)N2Cc3ccc(F)cc3C2)s1 [Compound 12, 1-(5-fluoro-1,3-dihydro-2H-isoindol-2-yl)-2-[(5-methyl-1,3-thiazol-2-yl)sulfanyl]ethanone]
< 1000 | O=C(CSc1ccccn1)N1Cc2ccccc2C1 [Compound 13, 1-(1,3-dihydro-2H-isoindol-2-yl)-2-(pyridin-2-ylsulfanyl)ethanone]
< 1000 | COc1ccc2c(c1)CN(C(=O)CSc1ccccn1)C2 [Compound 14, 1-(5-methoxy-1,3-dihydro-2H-isoindol-2-yl)-2-(pyridin-2-ylsulfanyl)ethanone]
1000 to 5000 | Nc1ccc2c(c1)CN(C(=O)CSc1ccccn1)C2 [Compound 15, 1-(5-amino-1,3-dihydro-2H-isoindol-2-yl)-2-(pyridin-2-ylsulfanyl)ethanone]
< 1000 | O=C(CSc1ccccn1)N1Cc2ccc(F)cc2C1 [Compound 16, 1-(5-fluoro-1,3-dihydro-2H-isoindol-2-yl)-2-(pyridin-2-ylsulfanyl)ethanone]
1000 to 5000 | Cc1cccc(SCC(=O)N2Cc3ccccc3C2)n1 [Compound 17, 1-(1,3-dihydro-2H-isoindol-2-yl)-2-[(6-methylpyridin-2-yl)sulfanyl]ethanone]
1000 to 5000 | O=C(CSc1cccc(Cl)n1)N1Cc2ccccc2C1 [Compound 18, 2-[(6-chloropyridin-2-yl)sulfanyl]-1-(1,3-dihydro-2H-isoindol-2-yl)ethanone]
1000 to 5000 | Cc1nnc(SCC(=O)N2Cc3ccccc3C2)s1 [Compound 19, 1-(1,3-dihydro-2H-isoindol-2-yl)-2-[(5-methyl-1,3,4-thiadiazol-2-yl)sulfanyl]ethanone]
1000 to 5000 | Nc1nnc(SCC(=O)N2Cc3ccccc3C2)s1 [Compound 20, 2-[(5-amino-1,3,4-thiadiazol-2-yl)sulfanyl]-1-(1,3-dihydro-2H-isoindol-2-yl)ethanone]
5000 to 10000 | O=C(CSc1ncc[nH]1)N1Cc2ccccc2C1 [Compound 21, 1-(1,3-dihydro-2H-isoindol-2-yl)-2-(1H-imidazol-2-ylsulfanyl)ethanone]

EC50 [nM] | Structure (SMILES)
5000 to 10000 | O=C(CSc1ncccn1)N1Cc2ccccc2C1 [Compound 22, 1-(1,3-dihydro-2H-isoindol-2-yl)-2-(pyrimidin-2-ylsulfanyl)ethanone]
< 1000 | O=C(CCSc1nccs1)N1Cc2ccccc2C1 [Compound 23, 1-(1,3-dihydro-2H-isoindol-2-yl)-3-(1,3-thiazol-2-ylsulfanyl)propan-1-one]
< 1000 | O=C(CCSc1ccccn1)N1Cc2ccc(F)cc2C1 [Compound 24, 1-(5-fluoro-1,3-dihydro-2H-isoindol-2-yl)-3-(pyridin-2-ylsulfanyl)propan-1-one]
1000 to 5000 | O=C(NCCSc1ccccn1)N1Cc2ccccc2C1 [Compound 25, N-[2-(pyridin-2-ylsulfanyl)ethyl]-1,3-dihydro-2H-isoindole-2-carboxamide]
< 1000 | O=C(N1Cc2ccc(F)cc2C1)C(F)(F)Sc1ccccn1 [Compound 26, 2,2-difluoro-1-(5-fluoro-1,3-dihydro-2H-isoindol-2-yl)-2-(pyridin-2-ylsulfanyl)ethanone]
1000 to 5000 | O=C(N1Cc2ccccc2C1)C(F)(F)CSc1ccccn1 [Compound 27, 1-(1,3-dihydro-2H-isoindol-2-yl)-2,2-difluoro-3-(pyridin-2-ylsulfanyl)propan-1-one]
< 1000 | COc1ccc2c(c1)CN(C(=O)CS(=O)(=O)c1nccs1)C2 [Compound 29, 1-(5-methoxy-1,3-dihydro-2H-isoindol-2-yl)-2-(1,3-thiazol-2-ylsulfonyl)ethanone]
< 1000 | O=C(CS(=O)(=O)c1nccs1)N1Cc2cccc(F)c2C1 [Compound 30, 1-(4-fluoro-1,3-dihydro-2H-isoindol-2-yl)-2-(1,3-thiazol-2-ylsulfonyl)ethanone]
< 1000 | O=C(CS(=O)(=O)c1nccs1)N1Cc2ccc(F)cc2C1 [Compound 31, 1-(5-fluoro-1,3-dihydro-2H-isoindol-2-yl)-2-(1,3-thiazol-2-ylsulfonyl)ethanone]
< 1000 | O=C(CS(=O)(=O)c1nccs1)N1Cc2cc(F)c(F)cc2C1 [Compound 32, 1-(5,6-difluoro-1,3-dihydro-2H-isoindol-2-yl)-2-(1,3-thiazol-2-ylsulfonyl)ethanone]
< 1000 | O=C(CS(=O)(=O)c1nccs1)N1Cc2ccc(Cl)cc2C1 [Compound 33, 1-(5-chloro-1,3-dihydro-2H-isoindol-2-yl)-2-(1,3-thiazol-2-ylsulfonyl)ethanone]
< 1000 | O=C(CS(=O)(=O)c1nccs1)N1Cc2cc(Cl)c(Cl)cc2C1 [Compound 34, 1-(5,6-dichloro-1,3-dihydro-2H-isoindol-2-yl)-2-(1,3-thiazol-2-ylsulfonyl)ethanone]
< 1000 | COC(=O)c1ccc2c(c1)CN(C(=O)CS(=O)(=O)c1nccs1)C2 [Compound 35, methyl 2-[(1,3-thiazol-2-ylsulfonyl)acetyl]-2,3-dihydro-1H-isoindole-5-carboxylate]
1000 to 5000 | O=C(CS(=O)(=O)c1nccs1)N1Cc2ccc([N+](=O)[O-])cc2C1 [Compound 36, 1-(5-nitro-1,3-dihydro-2H-isoindol-2-yl)-2-(1,3-thiazol-2-ylsulfonyl)ethanone]
5000 to 10000 | Cc1cnc(S(=O)(=O)CC(=O)N2Cc3ccccc3C2)s1 [Compound 37, 1-(1,3-dihydro-2H-isoindol-2-yl)-2-[(5-methyl-1,3-thiazol-2-yl)sulfonyl]ethanone]
< 1000 | O=C(CS(=O)(=O)c1ccccn1)N1Cc2ccccc2C1 [Compound 38, 1-(1,3-dihydro-2H-isoindol-2-yl)-2-(pyridin-2-ylsulfonyl)ethanone]
< 1000 | COc1ccc2c(c1)CN(C(=O)CS(=O)(=O)c1ccccn1)C2 [Compound 39, 1-(5-methoxy-1,3-dihydro-2H-isoindol-2-yl)-2-(pyridin-2-ylsulfonyl)ethanone]
< 1000 | O=C(CS(=O)(=O)c1ccccn1)N1Cc2ccc(F)cc2C1 [Compound 40, 1-(5-fluoro-1,3-dihydro-2H-isoindol-2-yl)-2-(pyridin-2-ylsulfonyl)ethanone]
1000 to 5000 | Cc1cccc(S(=O)(=O)CC(=O)N2Cc3ccccc3C2)n1 [Compound 41, 1-(1,3-dihydro-2H-isoindol-2-yl)-2-[(6-methylpyridin-2-yl)sulfonyl]ethanone]
1000 to 5000 | O=C(CS(=O)(=O)c1cccc(Cl)n1)N1Cc2ccccc2C1 [Compound 42, 2-[(6-chloropyridin-2-yl)sulfonyl]-1-(1,3-dihydro-2H-isoindol-2-yl)ethanone]
1000 to 5000 | O=C(CS(=O)(=O)c1ncccn1)N1Cc2ccccc2C1 [Compound 43, 1-(1,3-dihydro-2H-isoindol-2-yl)-2-(pyrimidin-2-ylsulfonyl)ethanone]
